Results as given in patent EP2935231B1, “C-XYLOSIDE COMPOUNDS, COMPOSITIONS AND USE THEREOF TO DEPIGMENT THE SKIN” (L'OREAL, priority 2012, dated 2014).
Read-outs that look alike come from different tables or passages of the source.

Legend:
synthèse de la mélanine = assay: Inhibition of melanin synthesis in keratinocyte/melanocyte coculture (ratio of thiouracil to leucine incorporation); assay type: cell-based; details: concentration at which 50 % of melanin synthesis is inhibited; thiouracil/leucine incorporation relative to 100 % of control
Description: (§1) Ce test est réalisé sur coculture de kératinocytes et de mélanocytes.
(§2) Pour le composé testé, il a été déterminé : • la cytotoxicité, en estimant l'incorporation de la leucine, • l'activité inhibitrice sur la synthèse de la mélanine, en estimant le rapport de l'incorporation de thiouracile à l'incorporation de leucine, rapporté à 100 % du témoin (le témoin correspond au test réalisé sans composé à testé). Les valeurs des IC50 (concentration pour laquelle 50 % de la synthèse de la mélanine est inhibée) ont été déterminées.

[1] = tested on: coculture de kératinocytes et de mélanocytes; assay: Cytotoxicity on keratinocyte/melanocyte coculture (leucine incorporation); details: coculture of keratinocytes and melanocytes
Description: as §1, §2

[2] = tested on: modèle de peau reconstruite complet comprenant un derme vivant; assay: Pigmentation in complete reconstructed skin model with living dermis, pigmentation induced by forskolin; assay type: cell-based
Description: L'activité du composé 1 a été évaluée sur le modèle de peau reconstruite complet décrit dans le brevet FR2928654 selon le procédé décrit dans le brevet FR2930644.
Le composé 1 a été ajouté au milieu de culture pendant une période de 16 jours à partir du 2eme jour de la phase d'émersion. La pigmentation a été induite par la Forskoline ajoutée pendant une période de 14 jours à partir du 4eme jour d'émersion (condition contrôle positif pigmenté).
Le composé 1 a montré une activité dépigmentante sur les paramètres suivants : • Luminance (clarté de la peau) plus la valeur de luminance est élevée plus l'échantillon de peau est clair : • augmentation significative de 6 points de la luminance pour le composé1 (Valeur de L contrôle positif = 63, valeur de L traitement par molécule 1 à 1 mM = 69) • Quantification de la mélanine par analyse d'images sur des coupes colorées au Fontana Masson (coloration argentique des grains de mélanine) : réduction de 60% de la quantité de mélanine par le composé 1 (contrôle positif = valeur arbitraire de 100%, composé 1 à 1 mM = 39,48%).

[3] = tested on: coculture de kératinocytes et de mélanocytes
Description: as §1, §2

Question: Which IC50 (synthèse de la mélanine) does the source give for `O=c1cc(CO)occ1O` [Acide kojique] here?
Answer: > 500 µM

Question: What about the Cytotoxicité sur co-culture [1] of the same molecule?
Answer: 100 µM

Question: How did the IC50 (synthèse de la mélanine) turn out when `OC[C@H]1O[C@@H](Oc2ccc(O)cc2)[C@H](O)[C@@H](O)[C@@H]1O` [Arbutine] was run?
Answer: > 500 µM

Question: And the Cytotoxicité sur co-culture [1]?
Answer: Non cytotoxique

Question: Which “valeur de L (luminance)” value ([2]; 1 mM, 16 days in culture medium, forskolin-induced pigmentation, higher = lighter skin) does the source give for `COc1cc(CCC(O)CC2OC[C@@H](O)[C@H](O)[C@H]2O)ccc1O` (stereo partly drawn) [Composé 1, (3R,4S,5R)-2-[2-hydroxy-4-(4-hydroxy-3-methoxyphenyl)butyl]tetrahydro-2H-pyran-3,4,5-triol] here?
Answer: 69

Question: What about the “augmentation de la luminance” value ([2]; 1 mM, 16 days in culture medium, versus forskolin positive control (L = 63)) of the same molecule?
Answer: 6 points

Question: And the “quantité de mélanine (contrôle positif = valeur arbitraire de 100%)” value ([2]; 1 mM, image analysis of Fontana Masson stained sections)?
Answer: 39,48%

Question: What about the “réduction de la quantité de mélanine” value ([2]; 1 mM, image analysis of Fontana Masson stained sections, versus positive control) of the same molecule?
Answer: 60%

Question: And the effet toxique ([2]; histology (morphology of reconstructed skin) and number of melanocytes (TRP1 labelling, DOPA reaction on epidermal sheet))?
Answer: absence d'effet toxique

Question: How did the IC50 (synthèse de la mélanine) turn out when `Oc1ccc(CCC(O)CC2OC[C@@H](O)[C@H](O)[C@H]2O)c(O)c1` (stereo partly drawn) [Composé 11, (3R,4S,5R)-2-[2-hydroxy-4-(2,4-di-hydroxy-phenyl)butyl]tetrahydro-2H-pyran-3,4,5-triol] was run?
Answer: 145 µM

Question: And the Cytotoxicité sur co-culture [3]?
Answer: Non cytotoxique
